In PubChem BioAssay (NCI):
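Where inhibition never reached the appropriate level, the endpoint shown equals the highest concentration tested. Otherwise, values were interpolated linearly from a five-concentration, 48-hour dose response in 96-well plates. GI50 = concentration required for 50% inhibition of growth. The concentration for full growth arrest is given as TGI.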

What was measured:
Assay in all cases: NCI-60 cell line screen, 48 h
[1] = tested on: 786-0 renal
[2] = tested on: A498 renal
[3] = tested on: A549 NSCLC
[4] = tested on: ACHN renal
[5] = tested on: BT-549 breast
[6] = tested on: CAKI-1 renal
[7] = tested on: CCRF-CEM leukemia
[8] = tested on: COLO 205 colon
[9] = tested on: DU-145 prostate
[10] = tested on: EKVX NSCLC
[11] = tested on: HCC-2998 colon
[12] = tested on: HCT-116 colon
[13] = tested on: HCT-15 colon
[14] = tested on: HL-60(TB) leukemia
[15] = tested on: HOP-62 NSCLC
[16] = tested on: HOP-92 NSCLC
[17] = tested on: HS 578T breast
[18] = tested on: HT29 colon
[19] = tested on: IGROV1 ovarian
[20] = tested on: K-562 leukemia
[21] = tested on: KM12 colon
[22] = tested on: LOX IMVI melanoma
[23] = tested on: M14 melanoma
[24] = tested on: MALME-3M melanoma
[25] = tested on: MCF7 breast
[26] = tested on: MDA-MB-231 breast
[27] = tested on: MDA-MB-435
[28] = tested on: MOLT-4 leukemia
[29] = tested on: NCI-H226 lung
[30] = tested on: NCI-H23 lung
[31] = tested on: NCI-H460 lung
[32] = tested on: NCI-H522 lung
[33] = tested on: NCI/ADR-RES ovarian
[34] = tested on: OVCAR-3 ovarian
[35] = tested on: OVCAR-4 ovarian
[36] = tested on: OVCAR-5 ovarian
[37] = tested on: OVCAR-8 ovarian
[38] = tested on: PC-3 prostate
[39] = tested on: RPMI-8226 leukemia
[40] = tested on: RXF 393 renal
[41] = tested on: SF-268 CNS
[42] = tested on: SF-295 CNS
[43] = tested on: SF-539 CNS
[44] = tested on: SK-MEL-2 melanoma
[45] = tested on: SK-MEL-28 melanoma
[46] = tested on: SK-MEL-5 melanoma
[47] = tested on: SK-OV-3 ovarian
[48] = tested on: SN12C renal
[49] = tested on: SNB-19 CNS
[50] = tested on: SNB-75 CNS
[51] = tested on: SW-620 colon
[52] = tested on: T-47D breast
[53] = tested on: TK-10 renal
[54] = tested on: U251 CNS
[55] = tested on: UACC-257 melanoma
[56] = tested on: UACC-62 melanoma
[57] = tested on: UO-31 renal

## C[N+](C)(CCCCCC[N+](C)(C)CCCN1C(=O)c2cc3ccccc3cc2C1=O)CCCN1C(=O)c2ccccc2C1=O
[1]
  GI50: > 37.5 µM
  TGI: > 37.5 µM
[2]
  GI50: > 37.5 µM
  TGI: > 37.5 µM
[3]
  GI50: > 37.5 µM
  TGI: > 37.5 µM
[4]
  GI50: > 37.5 µM
  TGI: > 37.5 µM
[5]
  GI50: > 37.5 µM
  TGI: > 37.5 µM
[6]
  GI50: > 37.5 µM
  TGI: > 37.5 µM
[7]
  GI50: > 37.5 µM
  TGI: > 37.5 µM
[8]
  GI50: > 37.5 µM
  TGI: > 37.5 µM
[9]
  GI50: > 37.5 µM
  TGI: > 37.5 µM
[10]
  GI50: > 37.5 µM
  TGI: > 37.5 µM
[11]
  GI50: > 37.5 µM
  TGI: > 37.5 µM
[12]
  GI50: > 37.5 µM
  TGI: > 37.5 µM
[13]
  GI50: > 37.5 µM
  TGI: > 37.5 µM
[14]
  GI50: > 37.5 µM
  TGI: > 37.5 µM
[15]
  GI50: > 37.5 µM
  TGI: > 37.5 µM
[16]
  GI50: > 37.5 µM
  TGI: > 37.5 µM
[17]
  GI50: > 37.5 µM
  TGI: > 37.5 µM
[18]
  GI50: > 37.5 µM
  TGI: > 37.5 µM
[19]
  GI50: > 37.5 µM
  TGI: > 37.5 µM
[20]
  GI50: > 37.5 µM
  TGI: > 37.5 µM
[21]
  GI50: > 37.5 µM
  TGI: > 37.5 µM
[22]
  GI50: > 37.5 µM
  TGI: > 37.5 µM
[23]
  GI50: > 37.5 µM
  TGI: > 37.5 µM
[24]
  GI50: > 37.5 µM
  TGI: > 37.5 µM
[25]
  GI50: > 37.5 µM
  TGI: > 37.5 µM
[26]
  GI50: > 37.5 µM
  TGI: > 37.5 µM
[27]
  GI50: > 37.5 µM
  TGI: > 37.5 µM
[28]
  GI50: > 37.5 µM
  TGI: > 37.5 µM
[29]
  GI50: > 37.5 µM
  TGI: > 37.5 µM
[30]
  GI50: > 37.5 µM
  TGI: > 37.5 µM
[31]
  GI50: > 37.5 µM
  TGI: > 37.5 µM
[32]
  GI50: > 37.5 µM
  TGI: > 37.5 µM
[33]
  GI50: > 37.5 µM
  TGI: > 37.5 µM
[34]
  GI50: > 37.5 µM
  TGI: > 37.5 µM
[35]
  GI50: > 37.5 µM
  TGI: > 37.5 µM
[36]
  GI50: > 37.5 µM
  TGI: > 37.5 µM
[37]
  GI50: > 37.5 µM
  TGI: > 37.5 µM
[38]
  GI50: > 37.5 µM
  TGI: > 37.5 µM
[39]
  GI50: > 37.5 µM
  TGI: > 37.5 µM
[40]
  GI50: > 37.5 µM
  TGI: > 37.5 µM
[41]
  GI50: > 37.5 µM
  TGI: > 37.5 µM
[42]
  GI50: > 37.5 µM
  TGI: > 37.5 µM
[43]
  GI50: > 37.5 µM
  TGI: > 37.5 µM
[44]
  GI50: > 37.5 µM
  TGI: > 37.5 µM
[45]
  GI50: > 37.5 µM
  TGI: > 37.5 µM
[46]
  GI50: > 37.5 µM
  TGI: > 37.5 µM
[47]
  GI50: > 37.5 µM
  TGI: > 37.5 µM
[48]
  GI50: > 37.5 µM
  TGI: > 37.5 µM
[49]
  GI50: > 37.5 µM
  TGI: > 37.5 µM
[50]
  GI50: > 37.5 µM
  TGI: > 37.5 µM
[51]
  GI50: > 37.5 µM
  TGI: > 37.5 µM
[52]
  GI50: > 37.5 µM
  TGI: > 37.5 µM
[53]
  GI50: > 37.5 µM
  TGI: > 37.5 µM
[54]
  GI50: > 37.5 µM
  TGI: > 37.5 µM
[55]
  GI50: > 37.5 µM
  TGI: > 37.5 µM
[56]
  GI50: > 37.5 µM
  TGI: > 37.5 µM
[57]
  GI50: > 37.5 µM
  TGI: > 37.5 µM
